Data from article doi:10.1101/2022.10.08.511437v2 (biorxiv, 2023).

Assays:
[1] = biological target: T1, full-length elephant shark GR (Callorhinchus milii, UniProt V9KGN8); experiment: cell-based; parameters: species or system HEK293
T1 sequence (V9KGN8 1-704): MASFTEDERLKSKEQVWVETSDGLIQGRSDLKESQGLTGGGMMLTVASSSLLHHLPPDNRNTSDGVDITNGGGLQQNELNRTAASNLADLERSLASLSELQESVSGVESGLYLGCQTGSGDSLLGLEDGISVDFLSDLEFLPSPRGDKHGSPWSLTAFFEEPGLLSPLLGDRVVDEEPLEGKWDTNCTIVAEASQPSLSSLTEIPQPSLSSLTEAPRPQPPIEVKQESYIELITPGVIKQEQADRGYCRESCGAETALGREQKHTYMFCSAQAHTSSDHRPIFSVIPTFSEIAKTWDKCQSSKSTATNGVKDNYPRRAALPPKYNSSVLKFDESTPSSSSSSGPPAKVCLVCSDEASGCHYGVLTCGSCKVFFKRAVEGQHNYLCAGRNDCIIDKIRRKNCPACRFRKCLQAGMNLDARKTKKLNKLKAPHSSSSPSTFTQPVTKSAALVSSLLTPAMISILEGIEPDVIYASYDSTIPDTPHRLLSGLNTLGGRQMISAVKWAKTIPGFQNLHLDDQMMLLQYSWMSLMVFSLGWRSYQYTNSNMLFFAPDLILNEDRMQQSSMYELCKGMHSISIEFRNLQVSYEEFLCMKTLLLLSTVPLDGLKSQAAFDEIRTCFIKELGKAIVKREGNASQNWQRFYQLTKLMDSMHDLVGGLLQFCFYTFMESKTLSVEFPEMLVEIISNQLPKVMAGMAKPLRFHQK

[2] = biological target: T1, full-length elephant shark GR; experiment: cell-based; parameters: species or system HEK293; remark: listed apart in the source
[3] = biological target: T1, full-length elephant shark GR; experiment: luciferase reporter transactivation in HEK293 cells; type: cell-based
[4] = biological target: T2, full-length elephant shark MR (Callorhinchus milii, UniProt A0A4W3I5J5); experiment: cell-based; parameters: species or system HEK293
T2 sequence (A0A4W3I5J5 1-956): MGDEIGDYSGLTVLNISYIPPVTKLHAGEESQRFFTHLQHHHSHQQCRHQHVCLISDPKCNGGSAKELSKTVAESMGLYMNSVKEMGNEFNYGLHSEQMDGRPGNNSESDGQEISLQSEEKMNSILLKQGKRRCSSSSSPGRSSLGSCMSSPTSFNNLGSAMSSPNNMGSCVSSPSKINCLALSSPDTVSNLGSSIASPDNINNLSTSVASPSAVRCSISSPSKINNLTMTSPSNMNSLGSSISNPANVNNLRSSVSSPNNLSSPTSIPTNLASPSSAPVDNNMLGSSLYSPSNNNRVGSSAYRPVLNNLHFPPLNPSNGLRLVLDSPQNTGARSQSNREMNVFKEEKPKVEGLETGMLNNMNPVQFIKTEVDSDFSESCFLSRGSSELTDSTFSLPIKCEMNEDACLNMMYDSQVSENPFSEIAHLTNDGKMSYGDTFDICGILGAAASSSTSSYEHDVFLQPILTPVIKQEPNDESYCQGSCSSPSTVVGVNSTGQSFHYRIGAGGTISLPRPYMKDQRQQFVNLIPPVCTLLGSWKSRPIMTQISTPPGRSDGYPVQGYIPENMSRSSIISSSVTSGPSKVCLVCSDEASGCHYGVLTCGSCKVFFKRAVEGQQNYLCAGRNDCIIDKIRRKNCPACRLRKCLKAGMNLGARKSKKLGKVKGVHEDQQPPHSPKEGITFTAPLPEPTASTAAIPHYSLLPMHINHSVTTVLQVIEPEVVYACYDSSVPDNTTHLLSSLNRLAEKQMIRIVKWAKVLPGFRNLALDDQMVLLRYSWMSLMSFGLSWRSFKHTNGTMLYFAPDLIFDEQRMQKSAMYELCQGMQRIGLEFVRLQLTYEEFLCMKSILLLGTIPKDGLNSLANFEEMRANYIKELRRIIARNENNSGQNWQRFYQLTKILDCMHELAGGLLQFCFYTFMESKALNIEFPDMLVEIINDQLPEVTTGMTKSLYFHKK

Compound | EC50 [1] [nM] | EC50 [2] [nM] | EC50 [3] [nM] | EC50 [4] [nM]
C[C@]12CCC(=O)C=C1CC[C@@H]1[C@@H]2[C@@H](O)C[C@]2(C=O)[C@@H](C(=O)CO)CC[C@@H]12 [aldosterone] |  |  |  | 0.08
C[C@]12CCC(=O)C=C1CC[C@@H]1[C@@H]2[C@@H](O)C[C@@]2(C)[C@H]1CC[C@]2(O)C(=O)CO [cortisol] |  |  |  | 2.4

The next lines start with the values.

EC50 [1] [nM] | EC50 [2] [nM] | EC50 [3] [nM] | EC50 [4] [nM] | Compound
11.2 | 11 |  |  | C[C@]12CC[C@H]3[C@@H](CCC4=CC(=O)CC[C@@]43C)[C@@H]1CC[C@@H]2C(=O)CO [11-deoxycorticosterone]
 |  | 289 | 0.2 | C[C@]12CCC(=O)C=C1CC[C@@H]1[C@@H]2CC[C@@]2(C)[C@H]1CC[C@]2(O)C(=O)CO [11-deoxycortisol]
 |  |  | 1 | C[C@]12C[C@H](O)[C@H]3[C@@H](CCC4=CC(=O)CC[C@@]43C)[C@@H]1CC[C@@H]2C(=O)CO [corticosterone]
